Assays:
TcR-I T cells [1] = test: In vitro suppressor assay after 4 day culture of TcR-I T cells with TRAMP DC and blocking agents; type: cell-based, mouse; settings: TRAMP DC + agent
Procedure: (§1) Naïve TcR-I T cells were co-cultured with DC for 72 hours. TcR-I cells were then re-isolated via negative selection with magnetic beads. To assess tolerance, TcR-I T cells were subjected to secondary stimulation with normal splenocytes and TAg. After 48 hours, wells were pulsed with 1 μCi [^3H] thymidine (Amersham, Buckinghamshire, England) for 12 hours. To assess suppressor activity, graded numbers of TcR-I T cells were added to 1×10^4 responder 37B7 TRP-2-specific T cells (Singh et al., J. Immunother., 32: 129-139 (2009)), 1×10^5 splenocytes, and 5 μM TRP-2, and incubated for 72 h at 37° C. One μCi of [^3H] thymidine per well was added for an additional 16 h and harvested as described above.
(§2) To investigate the effects of blocking IDO in vitro, 1MDT was also added to purified DC cultures to inhibit IDO activity during DC stimulation of TcR-I proliferation (FIG. 6A). Tolerance was assessed by testing secondary stimulation 4 days after primary culture with 1 MDT, a blocking agent to suppressive mediator IDO (FIG. 6D).
(§3) To investigate the effects of blocking PD-1 in vitro, anti-PD-1 antibody was added to cultures of TcR-I T cells and TRAMP or WT prostate DCs. Tolerance was assessed by testing secondary stimulation 4 days after primary culture with blocking agents, including anti-PD-1 antibody, to suppressive mediators (FIG. 6D). Suppressor activity was also measured after 4 day culture with blocking agents, including anti-PD-1 antibody, and the results are shown in Table 9.

TcR-I T cells [2] = test: ELISPOT (IFN-γ, granzyme B) of TcR-I T cells re-isolated from treated TRAMP mice; type: in vivo, mouse
Procedure: (§4) Lymph node (LN) cells from TcR-I mice were prepared in a single-cell suspension. Cell numbers were adjusted to 3×10^6 TcR-I cells to be transferred intravenously (i.v.) into recipient mice. In some experiments, inhibitors to IDO (1-methly-D-tryptophan, 1MDT) and arginase ((S) 2-bronoethyl)-L-cysteine (BEC)) were added to the drinking water every 3 days (5 μg/ml).
(§5) A blocking anti-PD-1 antibody (Ab) (clone RMP1-14) (Yamazaki et al., J. Immunol., 175: 1586-1592 (2005)) was administered by intraperitoneal (i.p.) injection on days 0, 1, and 3 with respect to adoptive transfer of TcR-I T cells (250 μg/injection). Anti-TGF-β Ab was injected i.p. on days −1,0,1 and 2 with respect to TcR-I transfer (500 μg/injection). Anti-CD317 Ab (5 μg) (kindly provided by Dr. Marco Colonna) was injected i.p. on days −1 and 0 with respect to TcR-I transfer (Blasius et al., J. Immunol., 177: 3260-3265 (2006)).
Multiscreen plates (Millipore, Billerica, Mass.) were coated with 100 μl of capture Ab (R&D Systems Inc., Minneapolis, Minn.) overnight at 4° C. IFN-γ (1×10^5) or granzyme B (2×10^4) purified Thy 1.1^+ TcR T cells were added to increasing concentrations of TAg560-568. After incubation, plates were washed and processed as previously described (Shafer-Weaver et al., Cancer Research, 69: 6256-6264 (2009)).
It was next determined whether in vivo depletion of TADCs enhanced TcR-I effector function. TADCs were depleted via i.p. injection of anti-CD317 Ab into TRAMP mice. TcR-I T cells were then transferred into TRAMP mice with or without DC depletion. T cells were re-isolated on days 6 (FIGS. 3A and 3B) or 12 (FIGS. 3C and 3D) after transfer to assess CTL effector function.
Selective amino acid catabolism is a previously-described mechanism of immune dysfunction in cancer (Bronte et al., J. Exp. Med., 201: 1257-1268 (2005); Sharma et al., J. Clin. Invest., 117: 2570-2582 (2007); Srivastava et al., Cancer Res., 70: 68-77 (2010)). […]

TcR-I T cells [3] = test: In vitro TcR-I proliferation and tolerance with TRAMP DCs and blocking agents; type: cell-based, mouse
Procedure: Naïve TcR-I T cells were used as responder cells in a proliferation assay; 2×10^4 T cells were stimulated with antigen and 2×10^4 isolated prostatic DCs. After 72 h of culture, wells were pulsed with 1 μCi [^3H] thymidine (Amersham, Buckinghamshire, England) for 16 h. The cells were then harvested using a Cell Harvester (Tomtec, Hamden, Conn.) and radioactivity was measured in a Liquid Scintillation Counter (WALLAC MICROBETA™ TriLux, PerkinElmer, Waltham, Mass.).
as §1, with “To assess suppressor activity, graded numbers of TcR-I T cells were added to 1×10^4 responder 37B7 TRP-2-specific T cells (Singh et al., J. Immunother., 32: 129-139 (2009)), 1×10^5 splenocytes, and 5 μM TRP-2, and incubated for 72 h at 37° C.” left out
as §2
as §3, with “6D).” for “6D). Suppressor activity was also measured after 4 day culture with blocking agents, including anti-PD-1 antibody, and the results are shown in Table 9.”

TRAMP mice = test: UGT and prostate weights (tumor burden) after TcR-I transfer; type: in vivo, mouse; settings: day 12 after TcR-I transfer, vs control/untreated
Procedure: as §4, §5
Control antibody or anti-CD317 antibody was injected i.p. into TRAMP mice on days −1 and 0 relative to T cell transfer. Weights of total urogenital tract (UGT) and dissected prostates were obtained at day 12. […]
Given the enhanced effector functions seen following inhibitory molecule blockade, the effect of blocking these suppressive mediators on anti-tumor immunity was tested. […] UGT weights (FIG. 7A) and prostate weights (FIG. 7B) were assessed on day 12 after TcR-I transfer.

[4] = 6 days after transfer into TRAMP mice, vs untreated/control Ab

Row | SMILES | % Suppression for Each Source of Primary Stimulation (TcR-I T cells [1]; Suppressor:Responder 1:1) [%] | % Suppression for Each Source of Primary Stimulation (TcR-I T cells [1]; Suppressor:Responder 1:2) [%] | % Suppression for Each Source of Primary Stimulation (TcR-I T cells [1]; Suppressor:Responder 1:4) [%] | % Suppression for Each Source of Primary Stimulation (TcR-I T cells [1]; Suppressor:Responder 2:1) [%] | IFN-γ secretion by TcR-I T cells (TcR-I T cells [2]; [4]) | granzyme B secretion by TcR-I T cells (TcR-I T cells [2]; [4]) | TcR-I T cell antigen responsiveness (TcR-I T cells [2]; day 12 after transfer / 12 days of treatment, TRAMP mice) | TADC-stimulated TcR-I proliferation (TcR-I T cells [3]; agent added to in vitro culture, primary stimulation) | tolerization of TcR-I T cells during co-culture (TcR-I T cells [3]; secondary stimulation 4 days after primary culture with agent) | prostate weight (TRAMP mice) | total urogenital tract (UGT) weight (TRAMP mice) | TcR-I responsiveness (block of in vitro tolerization) (TcR-I T cells [3]; blocking ARG in vitro)
1 | Cn1cc(C[C@@H](N)C(=O)O)c2ccccc21 [1MDT, 1-methyl-D-tryptophan] | 20 | 15 | 8 | 30 | significantly increased | significantly increased | loss of antigen responsiveness | enhanced | did not prevent them from becoming tolerized | statistically significant decrease | statistically significant decrease | 
2 | N=C(NO)NCC[C@H](N)C(=O)O [Nor-NOHA] |  |  |  |  |  |  |  |  |  |  |  | did not enhance TcR-I responsiveness
